Results from patent publication US20250206761A1, “HALOINDOLE MACROCYCLIC COMPOUNDS FOR THE TREATMENT OF CANCER” (Hoffmann-La Roche Inc., priority 2022, published 2025).

Experiments:
[1] = test system: phosphorylation of ERK, KRAS G12C in NCJ-H358 cells; assay: pERK inhibition assay, KRAS G12C; assay type: cell-based, human; conditions: 4 hours
How it was run: (§1)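 Plate cells, attach overnight; add compound (0.5% DMSO) for 4 h; fix in 4% formaldehyde, permeabilize with chilled methanol; block; incubate pERK antibody overnight at 4 °C, then HRP secondary; develop with TMB, stop, read OD450; fit 4-parameter curve for IC50.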

[2] = test system: phosphorylation of ERK, KRAS G12D in AGS cells; assay: pERK inhibition assay, KRAS G12D; assay type: cell-based, human; conditions: Homo sapiens, 4 hours
Method: This assay is to measure the ability of test compounds in inhibiting the phosphorylation of ERK, the downstream signaling of KRAS G12C in NCJ-H358 cells, KRAS G12D in AGS cells, and KRAS G12V in SW620. NCJ-H358 (ATCC-CRL5807) cells, AGS (ATCC-CRL-1739) cells, SW620 (ATCC-CCL-227) cells were all grown and maintained using RPMI-1640 medium (Thermo Fisher Scientific) with 10% fetal bovine serum and 1% penicillin/streptomycin. On the day prior to compound addition, cells were plated in tissue culture-treated 96 well plates (Corning-3699) at a density of 30,000 cell/well, 20,000 cell/well, 30,000 cell/well for NCJ-H358, AGS and SW620 respectively, and allowed for attachment overnight. Diluted compounds were then added in a final concentration of 0.5% DMSO. After 4 hours of incubation, the medium was removed, 100 μL of 4% formaldehyde was added, and the assay plates were incubated at room temperature for 20 minutes. The plates were then washed once with phosphate buffered saline (PBS), and permeabilized with 100 μL of chilled methanol for 10 minutes. Non-specific antibody binding to the plates was blocked using 50 μL 1×BSA blocking buffer (Thermo-37520, 10-fold dilution by Phosphate-Buffered Saline Tween (PBST) for at least 1 hour at room temperature.
The amount of phosphor-ERK was determined using an antibody specific for phosphorylated form of ERK. Primary antibody (pERK, CST-4370, Cell Signaling Technology) was diluted 1:300 in blocking buffer, with 50 μL aliquoted to each well, and incubated overnight at 4′° C. Cells was washed five times for 5 minutes with PBST. Secondary antibody ([…] anti-rabbit IgG, CST-7074, Cell Signaling Technology) was diluted 1:1000 in blocking buffer, and 50 μL was added to each well and incubated 1-2 hrs at room temperature. Cells was washed 5 times for 5 minutes with PBST, 100 μL TMB ELISA substrate (abcam-ab171523) were added and gently shake for 20 minutes. 50 μL stop solution (abcam-ab171529) were added, and then read the signal (OD450) by EnVision.
IC50 was determined by fitting a 4-parameter sigmoidal concentration response model.

[3] = test system: phosphorylation of ERK, KRAS G12V in SW620; assay: pERK inhibition assay, KRAS G12V; assay type: cell-based, human
How it was run: as §1

[4] = biological target: KRAS G12D binding to BRAF (Homo sapiens (Human), UniProt P01116+P62937, G12D); assay: KRAS-BRAF with CYPA (500 nM) interaction assay (TR-FRET), G12D; assay type: biochemical
[5] = test system: AGS (ATCC-CRL-1739) cells; assay: Cell viability assay, G12D (AGS); assay type: cell-based, human; conditions: KRAS cell viability, 72 hrs, Cell Counting Kit-8
How it was run: (§2)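 72-hr compound treatment, 0.5% DMSO final; NCI-H358 seeded 5,000 cells/well, AGS and SW620 2,000 cells/well. Endpoint: CCK-8, 2-hr development, OD450 minus OD650.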

KRAS G12C-BRAF complex = KRAS G12C-BRAF complex (Homo sapiens (Human), UniProt P01116+P62937, G12C); assay: KRAS-BRAF with CYPA (500 nM) interaction assay (TR-FRET), G12C; assay type: biochemical
SW620 (ATCC-CCL-227) = assay: Cell viability assay, G12V (SW620); assay type: cell-based, human; conditions: KRAS cell viability, SW620, 72 hrs, Cell Counting Kit-8
How it was run: as §2

[6] = test system: NCI-H358 (ATCC-CRL5807) cells; assay: Cell viability assay, G12C (NCI-H358); assay type: cell-based, human; conditions: KRAS cell viability, NCI-H358, 72 hrs, Cell Counting Kit-8
Method: The purpose of this cellular assay was to determine the effects of test compounds on the proliferation of human cancer cell lines NCI-H358 (ATCC-CRL5807) cells, AGS (ATCC-CRL-1739) cells, SW620 (ATCC-CCL-227) over a 3-day treatment period by quantifying the amount of NADPH present at endpoint using Cell Counting Kit-8.
Cells were seeded at 5,000 cells/well (NCI-H358), 2,000 cells/well (AGS) 2,000 cells/well (SW620) in 96-well assay plates (Corning-3699) and incubated overnight. On the day of the assay, diluted compounds were then added in a final concentration of 0.5% DMSO. After 72 hrs incubation, a tenth of the volume of cell counting kit 8 (Dnjindo-CK04) was added into each well. Read the signal (OD450 minus OD650) using EnVision after 2 hrs incubation. IC50 was determined by fitting a 4-parameter sigmoidal concentration response model.

[7] = biological target: KRAS G12V binding to BRAF (Homo sapiens (Human), UniProt P01116+P62937, G12V); assay: KRAS-BRAF with CYPA (500 nM) interaction assay (TR-FRET), G12V; assay type: biochemical
How it was run: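 A TR-FRET assay measured how compound, in the presence of CYPA, disrupts binding of GMPPNP-loaded 6His-KRAS G12V to BRAF. The buffer contained 25 mM HEPES PH=7.4, 0.002% Tween20, 0.1% BSA, 100 mM NaCl, 5 mM MgCl2 and 10 μM GMPPNP. Compounds ran as a 16-point 3-fold dilution series from 10 μM for 3 hours.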

[8] = Homo sapiens, SW-620, SW620, 4 hours

Chain of KRAS G12V binding to BRAF (P01116-2 other isoform, or with tags, fused parts or gaps G12V): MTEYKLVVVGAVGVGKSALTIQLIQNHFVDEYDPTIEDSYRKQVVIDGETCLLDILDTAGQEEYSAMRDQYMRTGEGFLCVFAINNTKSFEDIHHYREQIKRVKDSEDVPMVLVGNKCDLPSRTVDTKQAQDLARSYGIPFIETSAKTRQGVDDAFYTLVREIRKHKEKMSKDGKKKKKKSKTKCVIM
Chain of KRAS G12V binding to BRAF (P62937 whole entry): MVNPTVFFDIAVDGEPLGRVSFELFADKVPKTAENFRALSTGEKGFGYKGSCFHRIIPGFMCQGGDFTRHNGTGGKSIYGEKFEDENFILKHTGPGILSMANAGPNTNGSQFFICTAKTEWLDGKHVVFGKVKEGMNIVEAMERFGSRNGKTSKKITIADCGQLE
Chain of KRAS G12C-BRAF complex (P01116-2 other isoform, or with tags, fused parts or gaps G12C): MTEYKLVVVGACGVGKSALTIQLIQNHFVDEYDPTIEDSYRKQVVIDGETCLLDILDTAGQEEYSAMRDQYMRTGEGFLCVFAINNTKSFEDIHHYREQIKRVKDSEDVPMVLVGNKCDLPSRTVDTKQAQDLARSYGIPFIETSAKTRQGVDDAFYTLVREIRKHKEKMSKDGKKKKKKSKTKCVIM
Chain of KRAS G12C-BRAF complex (P62937 whole entry): as the sequence (P62937 whole entry) above
Chain of KRAS G12D binding to BRAF (P01116-2 other isoform, or with tags, fused parts or gaps G12D): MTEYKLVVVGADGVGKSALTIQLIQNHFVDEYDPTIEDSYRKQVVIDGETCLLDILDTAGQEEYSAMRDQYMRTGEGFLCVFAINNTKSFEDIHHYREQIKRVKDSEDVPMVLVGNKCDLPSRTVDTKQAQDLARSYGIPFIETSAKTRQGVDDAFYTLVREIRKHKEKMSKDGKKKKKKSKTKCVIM
Chain of KRAS G12D binding to BRAF (P62937 whole entry): as the sequence (P62937 whole entry) above

SMILES | IC50 ([1]; Homo sapiens) | IC50 [2] | IC50 [3, 8] | IC50 [4] | IC50 ([5]; Homo sapiens) | IC50 (KRAS G12C-BRAF complex) | IC50 (SW620 (ATCC-CCL-227); Homo sapiens, SW-620) | IC50 ([6]; Homo sapiens) | IC50 [7] | IC50 [1] | IC50 [5] | IC50 (SW620 (ATCC-CCL-227)) | IC50 ([3]; SW620, 4 hours) | IC50 [6]
CO[C@@H](C)c1ncc(N2CCN(C)CC2)cc1-c1c2c3cc(c(C)cc3n1CC(F)(F)F)-c1csc(n1)C[C@H](NC(=O)[C@H](C(C)C)N(C)C(=O)[C@H]1CCN(C(=O)[C@H](F)Cl)C1)C(=O)N1CCC[C@H](N1)C(=O)OCC(C)(C)C2 (atropisomer, axis not shown; (M)) [Example 3, (3S)-1-[(2R)-2-chloro-2-fluoro-acetyl]-N-[(1S)-1-[[(7S,13S)-(20M)-20-[2-[(1S)-1-methoxyethyl]-5-(4-methylpiperazin-1-yl)-3-pyridyl]-17,17,24-trimethyl-8,14-dioxo-21-(2,2,2-trifluoroethyl)-15-oxa-4-thia-9,21,27,28-tetrazapentacyclo[17.5.2.1^2,5.1^9,13.0^22,26]octacosa-1(25),2,5(28),19,22(26),23-hexaen-7-yl]carbamoyl]-2-methyl-propyl]-N-methyl-pyrrolidine-3-carboxamide] | 0.032 µM | 0.114 µM | 0.138 µM | – | – | – | – | – | – | – | – | – | – | –
CO[C@@H](C)c1ncc(N2CCN(CC(F)(F)F)CC2)cc1-c1c2c3cc(c(F)cc3n1CC(F)(F)F)-c1csc(n1)C[C@H](NC(=O)[C@H](C(C)C)N(C)C(=O)C1(F)CCN(C(=O)[C@H](F)Cl)CC1)C(=O)N1CCC[C@H](N1)C(=O)OCC(C)(C)C2 (atropisomer, axis not shown; (M)) [Example 44, 1-[(2R)-2-chloro-2-fluoro-acetyl]-4-fluoro-N-[(1S)-1-[[(7S,13S)-24-fluoro-(20M)-20-[2-[(1S)-1-methoxyethyl]-5-[4-(2,2,2-trifluoroethyl)piperazin-1-yl]-3-pyridyl]-17,17-dimethyl-8,14-dioxo-21-(2,2,2-trifluoroethyl)-15-oxa-4-thia-9,21,27,28-tetrazapentacyclo[17.5.2.1^2,5.1^9,13.0^22,26]octacosa-1(25),2,5(28),19,22(26),23-hexaen-7-yl]carbamoyl]-2-methyl-propyl]-N-methyl-piperidine-4-carboxamide] | 0.01 µM | – | 0.044 µM | 1.34 µM | 0.134 µM | 0.034 µM | > 5 µM | < 0.001 µM | 0.607 µM | – | – | – | – | –
CO[C@@H](C)c1ncc(N2CCN(CC(F)(F)F)CC2)cc1-c1c2c3cc(c(F)cc3n1CC(F)(F)F)-c1csc(n1)C[C@H](NC(=O)[C@H](C(C)C)N1CC[C@]3(CCN(C(=O)[C@H](F)Cl)C3)C1=O)C(=O)N1CCC[C@H](N1)C(=O)OCC(C)(C)C2 (atropisomer, axis not shown; (M)) [Example 45, (2S)-2-[(5S)-7-[(2R)-2-chloro-2-fluoro-acetyl]-1-oxo-2,7-diazaspiro[4.4]nonan-2-yl]-N-[(7S,13S)-24-fluoro-(20M)-20-[2-[(1S)-1-methoxyethyl]-5-[4-(2,2,2-trifluoroethyl)piperazin-1-yl]-3-pyridyl]-17,17-dimethyl-8,14-dioxo-21-(2,2,2-trifluoroethyl)-15-oxa-4-thia-9,21,27,28-tetrazapentacyclo[17.5.2.1^2,5.1^9,13.0^22,26]octacosa-1(25),2,5(28),19,22(26),23-hexaen-7-yl]-3-methyl-butanamide] | 0.007 µM | – | 0.02 µM | 4.97 µM | 0.135 µM | 0.01 µM | 0.121 µM | < 0.001 µM | 0.299 µM | – | – | – | – | –
CO[C@@H](C)c1ncc(N2CCN(CC(F)(F)F)CC2)cc1-c1c2c3cc(c(F)cc3n1CC(F)(F)F)-c1csc(n1)C[C@H](NC(=O)[C@H](C(C)C)N1CCC3(CCN(C(=O)[C@H](F)Cl)CC3)C1=O)C(=O)N1CCC[C@H](N1)C(=O)OCC(C)(C)C2 (atropisomer, axis not shown; (M)) [Example 47, (2S)-2-[8-[(2R)-2-chloro-2-fluoro-acetyl]-1-oxo-2,8-diazaspiro[4.5]decan-2-yl]-N-[(7S,13S)-24-fluoro-(20M)-20-[2-[(1S)-1-methoxyethyl]-5-[4-(2,2,2-trifluoroethyl)piperazin-1-yl]-3-pyridyl]-17,17-dimethyl-8,14-dioxo-21-(2,2,2-trifluoroethyl)-15-oxa-4-thia-9,21,27,28-tetrazapentacyclo[17.5.2.1^2,5.1^9,13.0^22,26]octacosa-1(25),2,5(28),19,22(26),23-hexaen-7-yl]-3-methyl-butanamide] | 0.026 µM | – | 0.176 µM | > 10 µM | > 5 µM | 0.079 µM | > 5 µM | 0.03 µM | > 10 µM | – | – | – | – | –
CCn1c(-c2cc(N3CCN(CC(F)(F)F)CC3)cnc2[C@H](C)OC)c2c3cc(c(F)cc31)-c1csc(n1)C[C@H](NC(=O)[C@H](C(C)C)N1CC[C@]3(CCN(C(=O)[C@H](F)Cl)C3)C1=O)C(=O)N1CCC[C@H](N1)C(=O)OCC(C)(C)C2 [Example 38, (2S)-2-[(5S)-7-[(2R)-2-chloro-2-fluoro-acetyl]-1-oxo-2,7-diazaspiro[4.4]nonan-2-yl]-N-[(7S,13S)-21-ethyl-24-fluoro-(20M)-20-[2-[(1S)-1-methoxyethyl]-5-[4-(2,2,2-trifluoroethyl)piperazin-1-yl]-3-pyridyl]-17,17-dimethyl-8,14-dioxo-15-oxa-4-thia-9,21,27,28-tetrazapentacyclo[17.5.2.1^2,5.1^9,13.0^22,26]octacosa-1(25),2,5(28),19,22(26),23-hexaen-7-yl]-3-methyl-butanamide] | – | – | – | 3.3 µM | – | 0.032 µM | – | – | 0.91 µM | 0.001 µM | 0.223 µM | 0.103 µM | 0.045 µM | < 0.001 µM
